Data as given in ChEMBL document CHEMBL1155004, “Antiprion activity of functionalized 9-aminoacridines related to quinacrine” (Bioorg Med Chem, 2008).

Legend:
[1] = Antiprion activity against scrapie prion protein RML infected mouse ScN2a cells assessed as reduction of scrapie prion protein accumulation by immunoblot analysis; type: cell-based
ScN2a = experiment: Antiprion activity against scrapie prion protein RML infected mouse ScN2a cells assessed as drug level required for more than 99 percent reduction of scrapie prion protein by immunoblot analysis; type: cell-based
[2] = Cytotoxicity against mouse ScN2a cells assessed as maximal tolerant concentration; type: cell-based; conditions: read-out: Activity
[3] = Selectivity index, ratio of maximal tolerant concentration for mouse ScN2a cells to EC50 for scrapie prion protein RML infected mouse ScN2a cells
[4] = Antiprion activity against scrapie prion protein 22L infected mouse N167 cells assessed as reduction of scrapie prion protein accumulation; type: cell-based
N167 = experiment: Antiprion activity against scrapie prion protein 22L infected mouse N167 cells assessed as drug level required for more than 99 percent reduction of scrapie prion protein; type: cell-based
[5] = Antiprion activity against scrapie prion protein RML infected mouse Ch2 cells assessed as reduction of scrapie prion protein accumulation; type: cell-based
Ch2 = experiment: Antiprion activity against scrapie prion protein RML infected mouse Ch2 cells assessed as drug level required for more than 99 percent reduction of scrapie prion protein; type: cell-based
[6] = Antiprion activity against human prion Fukuoka-1 infected mouse F3 cells assessed as reduction of scrapie prion protein accumulation; type: cell-based; conditions: N2a #58 F3
N2a #58 F3 = experiment: Antiprion activity against human prion Fukuoka-1 infected mouse F3 cells assessed as drug level required for more than 99 percent reduction of scrapie prion protein; type: cell-based

## COc1ccc2nc3cc(Cl)ccc3c(Nc3cccc(N4CCN(C)CC4)c3)c2c1
[1]
  EC50: 0.29 µM
ScN2a
  Activity: 1 µM
[2]
  MNTC: 4000 nM
[3]
  Selectivity Index: 14
[4]
  EC50: 1.19 µM
N167
  Activity: 3 µM
[5]
  EC50: 0.38 µM
Ch2
  Activity: 1.5 µM
[6]
  EC50: 1.49 µM
N2a #58 F3
  Activity: 3.5 µM

## COc1ccc2nc3cc(Cl)ccc3c(NC3CCN(Cc4ccccc4)CC3)c2c1
[1]
  EC50: 0.42 µM
ScN2a
  Activity: 1 µM
[2]
  MNTC: 2000 nM
[3]
  Selectivity Index: 5
[4]
  EC50: 0.49 µM
N167
  Activity: 1.5 µM
[5]
  EC50: 0.41 µM
Ch2
  Activity: 1 µM
[6]
  EC50: 0.8 µM

## CCN(CC)c1cccc(Nc2c3ccc(Cl)cc3nc3ccc(OC)cc23)c1
[1]
  EC50: 1.01 µM
ScN2a
  Activity: 2.5 µM
[2]
  MNTC: 3000 nM
[3]
  Selectivity Index: 3

## COc1ccc2nc3cc(Cl)ccc3c(NCCCN(C)C)c2c1
[1]
  EC50: 0.11 µM
ScN2a
  Activity: 0.3 µM
[2]
  MNTC: 1000 nM
[3]
  Selectivity Index: 9

## COc1ccc2nc3cc(Cl)ccc3c(N)c2c1
[1]
  EC50: 0.13 µM
ScN2a
  Activity: 0.4 µM
[2]
  MNTC: 4000 nM
[3]
  Selectivity Index: 30

## COc1ccc2nc3cc(Cl)ccc3c(Nc3cccc(N(C)C)c3)c2c1
[1]
  EC50: 0.32 µM
[2]
  MNTC: 2000 nM
[3]
  Selectivity Index: 6

## COc1ccc2nc3cc(Cl)ccc3c(Nc3cccc(N4CCOCC4)c3)c2c1
[1]
  EC50: 0.9 µM
[2]
  MNTC: 3000 nM
[3]
  Selectivity Index: 3

## COc1ccc2nc3cc(Cl)ccc3c(Nc3ccc(N4CCCCC4)cc3)c2c1
[1]
  EC50: 4.24 µM
ScN2a
  Activity: 7 µM
[2]
  MNTC: 9000 nM
[3]
  Selectivity Index: 2
[4]
  EC50: 4.29 µM

## CCN(CC)c1ccc(Nc2c3ccccc3nc3ccccc23)cc1
[1]
  EC50: 0.24 µM
[2]
  MNTC: 400 nM
[3]
  Selectivity Index: 2

## Nc1c2ccccc2nc2ccccc12 [AMINACRINE]
[2]
  MNTC: 2500 nM

## COc1ccc2nc3cc(Cl)ccc3c(Nc3ccc(N(C)C)cc3)c2c1
[1]
  EC50: 0.51 µM
[2]
  MNTC: 2000 nM
[3]
  Selectivity Index: 4

## CCN(CC)CCCNc1c2ccc(Cl)cc2nc2ccc(OC)cc12
[1]
  EC50: 0.14 µM
ScN2a
  Activity: 0.3 µM
[2]
  MNTC: 1000 nM
[3]
  Selectivity Index: 7

## COc1ccc2nc3cc(Cl)ccc3c(Nc3ccc(N4CCOCC4)cc3)c2c1
[1]
  EC50: 1.28 µM
ScN2a
  Activity: 3 µM
[2]
  MNTC: 4000 nM
[3]
  Selectivity Index: 3

## CCN(CC)CCCC(C)Nc1c2ccc(Cl)cc2nc2ccc(OC)cc12 (stereo not given) [QUINACRINE]
[1]
  EC50: 0.23 µM
ScN2a
  Activity: 0.8 µM
[2]
  MNTC: 2500 nM
[3]
  Selectivity Index: 11
[4]
  EC50: 0.59 µM
[5]
  EC50: 0.46 µM
Ch2
  Activity: 2 µM
[6]
  EC50: 1.88 µM

## CCN(CC)CCCCNc1c2ccc(Cl)cc2nc2ccc(OC)cc12
[1]
  EC50: 0.15 µM
ScN2a
  Activity: 0.4 µM
[2]
  MNTC: 1000 nM
[3]
  Selectivity Index: 7

## CCN(CC)c1ccc(Nc2c3ccc(Cl)cc3nc3ccc(OC)cc23)cc1
[1]
  EC50: 0.48 µM
ScN2a
  Activity: 1.5 µM
[2]
  MNTC: 2000 nM
[3]
  Selectivity Index: 4

## COc1ccc2nc3cc(Cl)ccc3c(Nc3ccc(N4CCN(C)CC4)cc3)c2c1
[1]
  EC50: 0.1 µM
ScN2a
  Activity: 0.4 µM
[2]
  MNTC: 2500 nM
[3]
  Selectivity Index: 25
[4]
  EC50: 0.42 µM
N167
  Activity: 1.5 µM
[5]
  EC50: 0.22 µM
Ch2
  Activity: 1.2 µM
[6]
  EC50: 0.68 µM
N2a #58 F3
  Activity: 1.5 µM

## COc1ccc2nc3cc(Cl)ccc3c(N3CCN(C)CC3)c2c1
[1]
  EC50: 0.36 µM
ScN2a
  Activity: 1.8 µM
[2]
  MNTC: 4000 nM
[3]
  Selectivity Index: 11
[5]
  EC50: > 2 µM

## COc1ccc2nc3cc(Cl)ccc3c(Nc3cccc(N4CCCC4)c3)c2c1
[1]
  EC50: 1.06 µM
[2]
  MNTC: 2000 nM
[3]
  Selectivity Index: 2

## COc1ccc2nc3cc(Cl)ccc3c(Nc3ccccc3N(C)C)c2c1
[1]
  EC50: 0.25 µM
ScN2a
  Activity: 0.8 µM
[2]
  MNTC: 5000 nM
[3]
  Selectivity Index: 20

## COc1ccc2nc3cc(Cl)ccc3c(Nc3cccc(N4CCCCC4)c3)c2c1
[1]
  EC50: 0.18 µM
ScN2a
  Activity: 0.5 µM
[2]
  MNTC: 4000 nM
[3]
  Selectivity Index: 22

## CCN(CC)CCNc1c2ccc(Cl)cc2nc2ccc(OC)cc12
[1]
  EC50: 0.021 µM
ScN2a
  Activity: 0.1 µM
[2]
  MNTC: 4000 nM
[3]
  Selectivity Index: 190
[5]
  EC50: 0.7 µM
Ch2
  Activity: 3 µM
